Reference: US7745465B2, “Method of enhancing cellular production of molecular chaperone, hydroxylamine derivatives useful for enhancing the chaperone production and the preparation thereof” (CytRx Corporation, priority 1995, dated 2010)

Key:
[1] = tested on: mitochondrial ATP synthesis; test: Coupling of oxidative phosphorylation / mitochondrial ATP synthesis after heat shock (oxygraph); type: cell-based, Saccharomyces cerevisiae; settings: 10 to 100 μM, one hour at 25° C. before 42° C. heat shock
Method: The experimental protocol for determining the impairment of oxidative phosphorylation and mitochondrial ATP synthesis in Saccharomyces cerevisiae is provided in Patriarca et al., Bio-chemistry and Cell Biology, 70:207-214, 1992, said reference being fully incorporated herein by reference.
To S. cerevisiae cells that were maintained at 25° C., varying concentration of N-[2-hydroxy-3-(1-piperidinyl)propoxy]-3-piridinecarboximidoyl chloride maleate was introduced (concentrations between 10 to 100 μM), cells were then incubated for one hour at 25° C. in the presence of N-[2-hydroxy-3-(1-piperidinyl)propoxy]-3-piridinecarboximidoyl chloride maleate. The temperature was then increased to 42° C., and the oxygraph measurements were taken as described in the Patriarca reference.

AP-1 = AP-1 transcription factor activity in yeast cells; type: cell-based
Excerpt: (§1) It was also investigated if the activity of AP-1 and P 1 transcription factors can be modulated by N-[2-hydroxy-3-(1-piperidinyl)propoxy]-3-piridinecarboximidoyl chloride maleate in yeast cells exposed to various stress conditions.

P 1 = test: P1 transcription factor activity in yeast cells; type: cell-based; settings: minimal medium
Excerpt: as §1

hsp72 [2] = test: hsp72 content of K562 tumor cells by flow-cytometry; type: cell-based, human; settings: for hsp72 expression compared to heat shock alone: 5×10^−5 M during 42° C. for 2 hours, 16 hrs recovery, maleate
Excerpt: Human K562 cells, a myeloid tumor cell line derived from a patient with chronic myelogenous leukemia in blast phase (ATCC, CCL243) was used (Lozzio, B C and Lozzio, B B Blood 45:321, 1975).

K562 cells = test: Sensitivity of K562 cells to lysis mediated by NK cells; type: cell-based, human; settings: heat shock plus treatment
[3] = tested on: isolated working rat hearts; test: Isolated working rat hearts, 10-min. coronary occlusion and 3-min. reperfusion; settings: for cardioprotection after pretreatment: 20 mg/kg
Method: After a 10-min. aerobic working perfusion, hearts (n=10 in each group) were subjected to a 10-min. coronary occlusion followed by a 3-min. reperfusion in the presence of 0.05, 0.5, 5.0, 20.0, and 50 mg/L N-[2-hydroxy-3-(1-piperidinyl)propoxy]-3-pyridine carboximidoyl chloride maleate, respectively.
After excision of the hearts, they were subjected to the coronary occlusion protocol detailed above while perfused in presence/absence of 20 mg/l N-[2-hydroxy-3-(1-piperidinyl)propoxy]-3-piridinecarboximidoyl chloride maleate.

HSP-70 = test: Myocardial HSP-70 protein content in isolated rat hearts (Western blot)
Method: In separate experiments the effects of heat stress, ischemia, N-[2-hydroxy-3-(1-piperidinyl)propoxy]-3-pyridine carboximidoyl chloride maleate and their combination were studied on myocardial HSP-70 protein content. Isolated hearts were subjected to 15 min. heat-stress (42° C.), global normothermic ischemia, and N-[2-hydroxy-3-[…](1-piperidinyl)propoxy]-3-pyridine carboximidoyl chloride maleate perfusion followed by 120 and 180 min. reperfusion, respectively.

Hsp72 [4] = test: hsp72 level of skin biopsy samples of STZ-diabetic rats (Western blot); type: in vivo, rat; settings: 4% containing cream, topical
Method: (ii) Streptozotocin-induced diabetic (STZ) rats with partial-to full thickness thermal wounds created on bilateral thoracic depilated skin by electroheating probe (3 mm of diameter; 60° C.; for 30, 60 and 90 sec.), treated by topical application of 1%, 2% or 4% N-[2-hydroxy-3-(1-piperidinyl)propoxy]-3-piridinecarboximidoyl chloride maleate containing cream or vehicle were used to determine the wound healing in form of self-control, side to side comparison. Wound closure was recorded photographically and using the digital epiluminescence microscopic technique. Wound areas were measured by planimetry 48 h and 21 days after heat injury. Level of hsp72 of skin biopsy samples was determined using Western blot analysis.

hsp72 [5] = test: HgCl2 stress induced hsp72 level in U-937 cells; type: cell-based, human; settings: 10^−5 M, 0.5 μg/ml HgCl2, 6 hours
Method: From the applied cells the 3T3 and L-929 mouse fibroblasts were cultured in MEM medium and grew in monolayer, the U-937 human leukemia cells were maintained in RPMI-1640 medium, in suspension culture, while the HeLa human epithelial cells were cultured in DMEM medium and in monolayer form. Cell cultures were maintained as described in example 6.2 (a) with the difference that cells were cultured in the above mentioned culture mediums.
Experiments were carried out applying stress before and after the drug treatment. Stress was provoked by heat, by chemical agent, HgCl2 treatment. The test compounds were applied in the treatments at the 10^−5 M concentration.
These experiments were performed on HeLa, human epithelial and U-937, human leukemia cells using HgCl2 to induce stress response. Drug treatment was carried out before cells were exposed to the stress. Test cultures were prepared and treatments were performed as in the experiments with the 3T3 cells. After the drug treatment cells were incubated at 37° C. for 15 min. than all the cultures except two (non stressed control) were exposed to 0.5 μg/ml concentration of HgCl2 and the incubation was followed. The induced amount of hsp72 was measured 6 hours after the exposure to stress.

Structure (SMILES): O=C(O)/C=C\C(=O)O.OC(CON=C(Cl)c1cccnc1)CN1CCCCC1 (stereo not drawn) [N-[2-hydroxy-3-(1-piperidinyl)-propoxy]3-pyridinecarboximidoyl chloride maleate]
- protection from the impairment of mitochondrial ATP synthesis [1]: 40-60%
- activity of AP-1 (AP-1; rich medium): decrease the activity of the factor
- activity of AP-1 (AP-1; supply of nutrients inadequate): increases the activity of AP-1
- activity of P 1 (P 1): activity decreased
- hsp72 expression compared to heat shock alone (hsp72 [2]; listed as N-[2-hydroxy-3-(1-piperidinyl)propoxy]-3-piridinecarboximidoyl chloride maleate): enhanced level of hsp72
- hsp72 expression compared to heat shock alone (hsp72 [2]; listed as N-[2-hydroxy-3-(1-piperidinyl)propoxy]-3-piridinecarboxymidoyl chloride maleate): significant increase of hsp72 expression
- hsp72 levels (hsp72 [2]; compound alone, no heat shock): did not increase hsp72 levels
- lisability of K562 cells by NK cells (K562 cells): synergistic effect on the lisability of K562 cells
- cardioprotection after pretreatment ([3]; five hours before isolation of the hearts): not observable
- cardioprotection after pretreatment ([3]; one hour before isolation of the hearts): still afforded cardioprotection
- ischemia-induced deterioration of cardiac function ([3]; 0.05-50 mg/L, bell-shaped, 20 mg/L most pronounced): alleviated ischemia-induced deterioration of cardiac function
- heart rate before ischemia ([3]; 50 mg/L): significant bradycardia
- coronary flow (CF) ([3]; before ischemia, bell-shaped concentration-response): increased coronary flow (CF)
- reperfusion-induced ventricular fibrillation ([3]; higher concentrations): dose-dependent antiarrhythmic effect
- myocardial HSP-70 content (HSP-70; compound alone): did not increase myocardial HSP-70 content
- myocardial HSP-70 content (HSP-70; ischemia in the presence of 20 mg/l): increased to approximately the same level as found after heat stress
- hsp72 level in skin biopsy samples compared to vehicle control (Hsp72 [4]): elevated the hsp72 level
- increase of the stress induced hsp72 level relative to the stress exposed control (hsp72 [5]): more than 20%
